Legend:
Dirofilaria immitis = assay: Activity in vitro against Dirofilaria immitis microfilariae (motility); type: cell-based; details: at up to 10 μg/mL; efficacy in percent reduced motility of microfilariae; 48 hours at 26° C.
HeLa = assay: Resazurin fluorometric cell viability assay, HeLa; details: Homo sapiens, 48 h, read-out: IC50 in HeLa
Method: (§1) The toxicity towards a human cervical cancer HeLa and a non-cancerous (MRC-5) cell line was determined using the fluorometric cell viability assay (Resazurin) (Ahmed et al., J. Immunol. Methods 1994, 170, 211.), results of which are shown in Table 1.
(§2) Human cervical carcinoma cells (HeLa) cells were cultured in DMEM (Gibco) supplemented with 5% fetal calf serum (FCS, Gibco), 100 U/ml penicillin, 100 μg/ml streptomycin at 37° C. and 5% CO2. The normal human fetal lung fibroblast MRC-5 cell line was maintained in F-10 medium (Gibco) supplemented with 10% FCS (Gibco), penicillin (100 U/ml), and streptomycin (100 μg/ml). Cytotoxicity studies were performed on two different cell lines, namely HeLa, and MRC-5, by a fluorometric cell viability assay using Resazurin (Promocell GmbH). Briefly, one day before treatment, cells were seeded in triplicates in 96-well plates at a density of 4×10^3 cells/well for HeLa and 7×10^3 for MRC-5 in 1041.1 growth medium. Upon treating cells with increasing concentrations of Fc-PZQ derivatives for 48h, the medium was removed, and 100 μl complete medium containing Resazurin (0.2 mg/ml final concentration) were added. After 4h of incubation at 37° C., fluorescence of the highly red fluorescent product Resorufin was quantified at 590 nm emission with 540 nm excitation wavelength in a SpectraMax M5 microplate Reader.

MRC-5 = assay: Resazurin fluorometric cell viability assay, MRC-5; details: Homo sapiens, MRC5, 48 h, read-out: IC50 in MRC-5
Method: as §1, §2

H. contortus = assay: Larval development assay (LDA); details: for LD50 against H. Contortus: larval development assay, L3 counted after 7 days; for inhibition of the development of H. contortus larvae: at concentrations between 100 μM and 25 μM

CC(C#N)(COC(=O)c1ccccc1)NC(=O)c1ccc(SC(F)(F)F)cc1 (centres unmarked)
Activity against Dirofilaria immitis (Dirofilaria immitis): EC6 at up to 10 μg/mL

C#CC(=O)OCC(C)(C#N)NC(=O)c1ccc(SC(F)(F)F)cc1 (centres unmarked)
Activity against Dirofilaria immitis (Dirofilaria immitis): EC15 at 0-10 μg/mL

CC(C#N)(CO)NC(=O)c1ccc([S+]([O-])C(F)(F)F)cc1 (centres unmarked)
Activity against Dirofilaria immitis (Dirofilaria immitis): EC5 at up to 10 μg/mL

CC(C#N)(CO)NC(=O)c1ccc(S(=O)(=O)C(F)(F)F)cc1 (centres unmarked)
Activity against Dirofilaria immitis (Dirofilaria immitis): EC15 at up to 10 μg/mL

CC(C#N)(CO)NC(=O)c1ccc(C(F)(F)F)cc1 (centres unmarked)
Activity against Dirofilaria immitis (Dirofilaria immitis): EC25 at up to 10 μg/mL

CSc1ccc(C(=O)NC(C)(C#N)CO)cc1 (centres unmarked)
Activity against Dirofilaria immitis (Dirofilaria immitis): EC15 at up to 10 μg/mL

CC(C#N)(CO)NC(=O)c1ccc(F)cc1 (centres unmarked)
Activity against Dirofilaria immitis (Dirofilaria immitis): EC20 at up to 10 μg/mL

CC(C#N)(CO)NC(=O)c1ccc(I)cc1 (centres unmarked)
Activity against Dirofilaria immitis (Dirofilaria immitis): EC15 at up to 10 μg/mL

C[C@](C#N)(COc1cc(C#N)ccc1C(F)(F)F)NC(=O)c1ccc(SC(F)(F)F)cc1 [Zolvix, Monepantel, reference compound]
IC50 (HeLa): 34.1 µM | IC50 (MRC-5): 63.9 µM | LD50 against H. Contortus (H. contortus): <41 nM

CC(=O)OCC(C)(C#N)NC(=O)c1ccc(SC(F)(F)F)cc1 (centres unmarked) [ahpOH1, 2-Cyano-2-(4-((trifluoromethyl)thio)benzamido)propyl acetate]
IC50 (HeLa): > 100 µM | IC50 (MRC-5): > 100 µM | inhibition of the development of H. contortus larvae (H. contortus): severely and reproducibly inhibited | LD50 against H. Contortus (H. contortus): 550 nM

CC(C#N)(CO)NC(=O)c1ccc(SC(F)(F)F)cc1 (centres unmarked) [ahpOH, N-(2-cyano-1-hydroxypropan-2-yl)-4-((trifluoromethyl)thio)benzamide]
IC50 (HeLa): > 100 µM | IC50 (MRC-5): > 100 µM | inhibition of the development of H. contortus larvae (H. contortus): severely and reproducibly inhibited | LD50 against H. Contortus (H. contortus): 173 nM

CC(C#N)(CO)NC(=O)c1ccc(SC(F)(F)F)cc1 (centres unmarked) [drawing 36]
Activity against Dirofilaria immitis (Dirofilaria immitis): EC20 at up to 10 μg/mL

— patent publication US20160368868A1, “N-(1-CYANO-2-HYDROXY-1-METHYL-ETHYL)-4-(TRIFLUOROMETHYLSULFANYL)BENZAMIDE DERIVATIVES FOR USE AS NEMATOCIDAL DRUGS” (UNIVERSITÄT ZÜRICH Prorektorat MNW, priority 2013, published 2016)
